Literature values as cited in patent US12582603B2 (NTC S.r.l., priority 2017, dated 2026).

Conditions: at a pH of 6.4

## Brc1c(N=C2NCCN2)ccc2nccnc12.O=C(O)C(O)C(O)C(=O)O [Brimonidine, 5-Bromo-6-(2-imidazolidinylideneamino)quinoxaline L-tartrate]
  Fraction ionized: about 90%
